Experimental data from ChEMBL document CHEMBL1201862, “PubChem BioAssay data set” (2004).
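Protocol summary: plate cells (96-well), add compound at 5 concentrations, incubate 48 h, interpolate endpoints linearly. Here, GI50 denotes the concentration required for 50% inhibition of growth.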 The source made the active and inactive calls. Cut-off read from the data, not from the text of the source: active = GI50 up to about 1.1 µM and inactive = higher.

Experiments:
Test in all cases: inhibition of tumour cell growth, NCI panel, 48 h
EKVX = test system: EKVX
HCC 2998 = test system: HCC 2998
HOP-62 = test system: HOP-62
HT-29 = test system: HT-29
K562 = test system: K562
KM12 = test system: KM12
MOLT-4 = test system: MOLT-4
NCI-H460 = test system: NCI-H460
OVCAR-3 = test system: OVCAR-3
RPMI-8226 = test system: RPMI-8226
SF-539 = test system: SF-539
SNB-19 = test system: SNB-19
SNB-78 = test system: SNB-78
SR = test system: SR
UO-31 = test system: UO-31
OVCAR-8 = test system: OVCAR-8
SF-295 = test system: SF-295
UACC-257 = test system: UACC-257

| Structure (SMILES) | GI50 (EKVX) | GI50 (HCC 2998) | GI50 (HOP-62) | GI50 (HT-29) | GI50 (K562) | GI50 (KM12) | GI50 (MOLT-4) | GI50 (NCI-H460) | GI50 (OVCAR-3) | GI50 (RPMI-8226) | GI50 (SF-539) | GI50 (SNB-19) | GI50 (SNB-78) | GI50 (SR) | GI50 (UO-31) | GI50 (OVCAR-8) | GI50 (SF-295) | GI50 (UACC-257) |
| --- | --- | --- | --- | --- | --- | --- | --- | --- | --- | --- | --- | --- | --- | --- | --- | --- | --- | --- |
| COC(=O)c1c/c(=N\NC(=O)CC(=O)Nc2ccccc2OC)c2ccccc2o1 | > 100 µM (inactive) | 93.1 µM (inactive) | > 100 µM (inactive) | > 100 µM (inactive) | 54.2 µM (inactive) | > 100 µM (inactive) | 75.7 µM (inactive) | 76 µM (inactive) | > 100 µM (inactive) | > 100 µM (inactive) | > 100 µM (inactive) | > 100 µM (inactive) | > 100 µM (inactive) | > 100 µM (inactive) | > 100 µM (inactive) | – | – | – |
| COC(=O)C1C(=O)N(CCc2c[nH]c3ccccc23)C[C@@H]2CCC(=O)C[C@H]12 (stereo not given in full) | > 100 µM (inactive) | > 100 µM (inactive) | > 100 µM (inactive) | > 100 µM (inactive) | > 100 µM (inactive) | > 100 µM (inactive) | > 100 µM (inactive) | > 100 µM (inactive) | > 100 µM (inactive) | > 100 µM (inactive) | > 100 µM (inactive) | > 100 µM (inactive) | > 100 µM (inactive) | – | > 100 µM (inactive) | > 100 µM (inactive) | > 100 µM (inactive) | > 100 µM (inactive) |
| CC1CC[C@]2(C(=O)O)CCC3(COC(=O)/C=C\c4ccc(O)cc4)C(=CCC4[C@@]5(C)CC[C@H](O)C(C)(C)C5CC[C@]43C)[C@@H]2[C@H]1C (stereo not given in full) | 16.7 µM (inactive) | 17.2 µM (inactive) | – | 19.7 µM (inactive) | 13 µM (inactive) | 7.21 µM (inactive) | 26.6 µM (inactive) | 15.7 µM (inactive) | 18.2 µM (inactive) | 22.3 µM (inactive) | 15.8 µM (inactive) | 12.3 µM (inactive) | > 100 µM (inactive) | 20.6 µM (inactive) | 17.7 µM (inactive) | 20.1 µM (inactive) | 17.1 µM (inactive) | 31 µM (inactive) |
| CCOC(=O)C(C)(C)Oc1ccc2c(=O)cc(-c3ccccc3)oc2c1 | 31.9 µM (inactive) | > 100 µM (inactive) | 18.5 µM (inactive) | – | 13 µM (inactive) | 18.9 µM (inactive) | 13.8 µM (inactive) | 27.7 µM (inactive) | 19.5 µM (inactive) | 14.1 µM (inactive) | 20.2 µM (inactive) | 18.8 µM (inactive) | 26.7 µM (inactive) | – | 48.6 µM (inactive) | 23 µM (inactive) | 26.5 µM (inactive) | 17.4 µM (inactive) |
| CCOC(=O)C1N(S(=O)(=O)c2ccc(C)cc2)CCC12c1ccccc1N(C(C)=O)C2C(/C=C/C(=O)OC)=C/C(=O)OC (stereo not given) | > 100 µM (inactive) | > 100 µM (inactive) | > 100 µM (inactive) | > 100 µM (inactive) | 85.3 µM (inactive) | > 100 µM (inactive) | – | > 100 µM (inactive) | > 100 µM (inactive) | 62.5 µM (inactive) | > 100 µM (inactive) | > 100 µM (inactive) | > 100 µM (inactive) | – | > 100 µM (inactive) | > 100 µM (inactive) | > 100 µM (inactive) | > 100 µM (inactive) |
| CN(C)CCNc1ccc2ncn3c4ccccc4c(=O)c1c23 | – | – | 4.46 µM (inactive) | 1.38 µM (inactive) | > 100 µM (inactive) | 2.44 µM (inactive) | 0.615 µM (active) | 0.805 µM (active) | 7.76 µM (inactive) | 2.84 µM (inactive) | 3.62 µM (inactive) | 7.96 µM (inactive) | 3.04 µM (inactive) | 0.822 µM (active) | 1.53 µM (inactive) | 1.15 µM (inactive) | 2.47 µM (inactive) | 2.97 µM (inactive) |
| C=CCO/N=C(\OC(=O)c1ccc([N+](=O)[O-])cc1)c1ccccc1 | > 100 µM (inactive) | > 100 µM (inactive) | > 100 µM (inactive) | > 100 µM (inactive) | > 100 µM (inactive) | > 100 µM (inactive) | – | > 100 µM (inactive) | > 100 µM (inactive) | > 100 µM (inactive) | > 100 µM (inactive) | > 100 µM (inactive) | > 100 µM (inactive) | – | > 100 µM (inactive) | > 100 µM (inactive) | > 100 µM (inactive) | – |
| C[N+]1=C(c2cccnc2/C=N/O)OCC1(C)C | > 100 µM (inactive) | > 100 µM (inactive) | > 100 µM (inactive) | > 100 µM (inactive) | > 100 µM (inactive) | > 100 µM (inactive) | > 100 µM (inactive) | > 100 µM (inactive) | > 100 µM (inactive) | – | > 100 µM (inactive) | > 100 µM (inactive) | > 100 µM (inactive) | > 100 µM (inactive) | > 100 µM (inactive) | > 100 µM (inactive) | > 100 µM (inactive) | > 100 µM (inactive) |
| NC(=S)N/N=C1\CCCC\C1=C/c1ccccc1 | 99.8 µM (inactive) | > 100 µM (inactive) | > 100 µM (inactive) | 20 µM (inactive) | 2.71 µM (inactive) | 45.1 µM (inactive) | 19.6 µM (inactive) | > 100 µM (inactive) | 39.1 µM (inactive) | 15 µM (inactive) | 93.8 µM (inactive) | > 100 µM (inactive) | > 100 µM (inactive) | – | 32.5 µM (inactive) | > 100 µM (inactive) | > 100 µM (inactive) | 17.9 µM (inactive) |
| NC(=O)c1ccc(Cl)c([N+](=O)[O-])c1 | > 100 µM (inactive) | > 100 µM (inactive) | > 100 µM (inactive) | > 100 µM (inactive) | > 100 µM (inactive) | > 100 µM (inactive) | > 100 µM (inactive) | > 100 µM (inactive) | > 100 µM (inactive) | > 10 µM (inactive) | > 100 µM (inactive) | > 100 µM (inactive) | > 100 µM (inactive) | – | > 100 µM (inactive) | > 100 µM (inactive) | > 100 µM (inactive) | > 100 µM (inactive) |
| O=C(Nc1ccc(Cl)c(Cl)c1)C1C(=O)N(c2ccc(Cl)c(Cl)c2)C(=O)/C1=N\O (stereo not given) | 39.6 µM (inactive) | > 100 µM (inactive) | > 100 µM (inactive) | 39.4 µM (inactive) | 16.9 µM (inactive) | – | > 100 µM (inactive) | – | > 100 µM (inactive) | > 100 µM (inactive) | > 100 µM (inactive) | > 100 µM (inactive) | > 100 µM (inactive) | – | > 100 µM (inactive) | > 100 µM (inactive) | 73.5 µM (inactive) | 51.2 µM (inactive) |
| CC(=O)NC1=C(NCCC(C)C)C(=O)c2ccccc2C1=O | > 50 µM (inactive) | > 50 µM (inactive) | > 50 µM (inactive) | > 50 µM (inactive) | > 50 µM (inactive) | > 50 µM (inactive) | > 50 µM (inactive) | > 50 µM (inactive) | > 50 µM (inactive) | – | > 50 µM (inactive) | > 50 µM (inactive) | > 50 µM (inactive) | > 50 µM (inactive) | > 50 µM (inactive) | > 50 µM (inactive) | > 50 µM (inactive) | > 50 µM (inactive) |
